This is an account of results in ChEMBL document CHEMBL4265998, “NLRP3 Modulators for the Treatment of Autoinflammatory Disorders” (ACS Med Chem Lett, 2018).

For assay [1], the target named is T1, Toll-like receptor 7 (Homo sapiens, UniProt Q9NYK1).
T1 sequence (Q9NYK1 whole entry): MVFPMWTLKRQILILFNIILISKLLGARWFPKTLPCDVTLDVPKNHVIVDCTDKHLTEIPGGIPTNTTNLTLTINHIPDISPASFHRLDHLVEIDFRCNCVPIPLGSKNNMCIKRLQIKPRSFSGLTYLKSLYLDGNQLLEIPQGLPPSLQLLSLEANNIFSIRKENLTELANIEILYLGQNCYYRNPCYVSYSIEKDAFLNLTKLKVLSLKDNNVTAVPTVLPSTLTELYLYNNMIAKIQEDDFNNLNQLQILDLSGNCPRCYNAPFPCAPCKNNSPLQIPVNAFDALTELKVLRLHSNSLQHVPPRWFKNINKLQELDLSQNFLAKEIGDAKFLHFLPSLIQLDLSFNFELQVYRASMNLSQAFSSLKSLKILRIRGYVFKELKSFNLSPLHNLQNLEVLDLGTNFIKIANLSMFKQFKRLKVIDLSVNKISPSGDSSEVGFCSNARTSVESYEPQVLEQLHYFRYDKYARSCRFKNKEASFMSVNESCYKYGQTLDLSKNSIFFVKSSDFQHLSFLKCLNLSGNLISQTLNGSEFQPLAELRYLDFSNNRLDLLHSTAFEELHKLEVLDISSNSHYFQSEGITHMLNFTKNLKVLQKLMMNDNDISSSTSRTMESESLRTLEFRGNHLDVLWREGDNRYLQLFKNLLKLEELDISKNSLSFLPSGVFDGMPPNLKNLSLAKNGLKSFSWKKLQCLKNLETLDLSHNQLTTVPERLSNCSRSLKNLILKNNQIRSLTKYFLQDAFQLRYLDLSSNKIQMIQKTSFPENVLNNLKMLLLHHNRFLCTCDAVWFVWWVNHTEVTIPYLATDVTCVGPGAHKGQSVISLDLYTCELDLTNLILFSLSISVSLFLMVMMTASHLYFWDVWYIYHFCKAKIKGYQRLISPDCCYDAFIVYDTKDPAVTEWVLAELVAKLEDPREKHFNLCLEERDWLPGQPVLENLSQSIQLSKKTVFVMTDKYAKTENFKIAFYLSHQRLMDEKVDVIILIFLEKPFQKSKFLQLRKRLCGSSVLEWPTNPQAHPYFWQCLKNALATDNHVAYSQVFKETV
As to the kind of experiment: Agonist activity at TLR7 (unknown origin) expressed in HEK-Blue cells. In kind it is cell-based.

The target in assay [2] is T2, Toll-like receptor 8 (Homo sapiens, UniProt Q9NR97).
T2 sequence (Q9NR97 whole entry): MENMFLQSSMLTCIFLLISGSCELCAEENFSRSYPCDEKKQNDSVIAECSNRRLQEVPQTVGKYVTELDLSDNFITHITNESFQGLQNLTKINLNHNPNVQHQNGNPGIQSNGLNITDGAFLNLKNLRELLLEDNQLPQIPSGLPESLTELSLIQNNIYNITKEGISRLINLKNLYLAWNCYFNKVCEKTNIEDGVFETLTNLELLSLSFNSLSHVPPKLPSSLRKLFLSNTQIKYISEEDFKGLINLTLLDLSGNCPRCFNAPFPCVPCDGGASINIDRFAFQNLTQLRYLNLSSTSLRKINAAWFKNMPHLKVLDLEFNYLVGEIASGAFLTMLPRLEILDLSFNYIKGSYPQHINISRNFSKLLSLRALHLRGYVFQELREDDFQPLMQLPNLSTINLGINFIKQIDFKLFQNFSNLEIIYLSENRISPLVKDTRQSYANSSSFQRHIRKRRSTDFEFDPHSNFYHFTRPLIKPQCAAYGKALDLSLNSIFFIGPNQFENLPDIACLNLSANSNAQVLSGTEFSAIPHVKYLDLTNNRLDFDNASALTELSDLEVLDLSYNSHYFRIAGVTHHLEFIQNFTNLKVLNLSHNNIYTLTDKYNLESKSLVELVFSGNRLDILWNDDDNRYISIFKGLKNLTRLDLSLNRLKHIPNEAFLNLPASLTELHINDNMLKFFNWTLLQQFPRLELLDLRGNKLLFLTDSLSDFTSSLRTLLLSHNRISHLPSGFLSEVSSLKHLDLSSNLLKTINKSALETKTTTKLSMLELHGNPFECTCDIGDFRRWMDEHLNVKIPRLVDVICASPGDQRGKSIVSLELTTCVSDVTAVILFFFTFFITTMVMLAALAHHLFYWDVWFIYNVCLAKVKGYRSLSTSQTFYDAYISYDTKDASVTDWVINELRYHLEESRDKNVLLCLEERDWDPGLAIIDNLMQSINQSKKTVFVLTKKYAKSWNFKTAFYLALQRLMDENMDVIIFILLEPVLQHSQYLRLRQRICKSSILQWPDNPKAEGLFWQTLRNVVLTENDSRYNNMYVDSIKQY
As to the kind of experiment: Agonist activity at TLR8 (unknown origin) expressed in HEK-Blue cells. The format is cell-based.

As for `Nc1nc2cc(-c3ccccc3)ccc2c2[nH]c(CN3CCCC3=O)nc12`, the EC50 in assay [1] and in assay [2] was greater than 100 µM in each case.

As for `CCN(C)Cc1nc2c(N)nc3cc(-c4cc[nH]n4)ccc3c2[nH]1`, the EC50 in assay [1] and in assay [2] was greater than 100 µM throughout.

As for `CCC(=O)N(CC)Cc1nc2c(N)nc3cc(-c4ccn[nH]4)ccc3c2n1CC`, the EC50 in assay [1] and in assay [2] was greater than 100 µM in each case.

For `CCn1c(CN2CCCC2=O)nc2c(N)nc3cc(-c4cccs4)ccc3c21`, the EC50 in assay [1] and in assay [2] was greater than 100 µM each time.

As to `Cc1cccc(-c2ccc3c(c2)nc(N)c2nc(CN4CCCC4=O)[nH]c23)c1`, the EC50 in assay [1] and in assay [2] was greater than 100 µM in each case.

As for `Nc1nc2cc(-c3ccccc3F)ccc2c2[nH]c(CN3CCCC3=O)nc12`, the concentration giving a half-maximal response (EC50) in assay [1] and in assay [2] was greater than 100 µM throughout.

Regarding `Cc1ccc(-c2ccc3c(c2)nc(N)c2nc(CN4CCCC4=O)[nH]c23)cc1`, the EC50 in assay [1] and in assay [2] was greater than 100 µM throughout.

For the compound `Nc1nc2cc(-n3cccn3)ccc2c2[nH]c(CN3C[C@H](c4ccccc4)CC3=O)nc12`, the 50% effective concentration (EC50) in assay [1] and in assay [2] was greater than 100 µM in each case.

Turning to `Nc1nc2cc(-c3cccs3)ccc2c2[nH]c(CN3CCCC3=O)nc12`, the EC50 in assay [1] and in assay [2] was greater than 100 µM in each case.

Consider `CCN(Cc1nc2c(N)nc3cc(C4=CCCC4)ccc3c2[nH]1)C(C)=O`, for which the EC50 in assay [1] and in assay [2] was greater than 100 µM throughout.

For `CCN(Cc1nc2c(N)nc3cc(-c4ccccc4)ccc3c2[nH]1)C(C)=O`, the EC50 in assay [1] and in assay [2] was greater than 100 µM in each case.

As to `CCN(Cc1nc2c(N)nc3cc(-c4cc[nH]n4)ccc3c2n1C)C(=O)OC(C)(C)C`, the EC50 in assay [1] and in assay [2] was greater than 100 µM throughout.
